Data taken from US20190064177A1, “INCORPORATING COMPETITIVE BINDING INFORMATION INTO MOLECULAR ARRAY ANALYSIS TO GENERATE FUNCTION NETWORKS OF INTERACTIONS” (ARIZONA BOARD OF REGENTS ON BEHALF OF ARIZONA STATE …, priority 2017, published 2019).

System: diaphorase
Experiment: fluorescently labeled diaphorase binding to peptide array with or without excess FAD
Conditions: for Meas. ratio: ratio without/with FAD calculated from measured binding values; for Meas. ratio / 1 microM noFAD/FAD: 1 micromolar diaphorase; for 1 microM FAD (array fluorescence of bound diaphorase) / 1 micro no FAD (array fluorescence of bound diaphorase): 1 micromolar labeled diaphorase; for 1 microM FAD (array fluorescence of bound diaphorase) / 10 microM FAD (array fluorescence of bound diaphorase): excess FAD present; for 1 microM FAD (array fluorescence of bound diaphorase) / 1 micro no FAD (array fluorescence of bound diaphorase) / 10 microM FAD (array fluorescence of bound diaphorase) / 10 microM no FAD (array fluorescence of bound diaphorase): 65535 is detector saturation; for 10 microM FAD (array fluorescence of bound diaphorase) / 10 microM no FAD (array fluorescence of bound diaphorase): 10 micromolar labeled diaphorase; for 1 microM noFAD/FAD / 10 microM noFAD/FAD: ratio of binding without FAD to binding with FAD; for 10 microM noFAD/FAD: 10 micromolar diaphorase
Protocol: Measurements were performed in which diaphorase was bound to an array of about 126,000 unique sequences. The sequences were chosen simply to cover sequence space. 16 of the natural 20 amino acids were used to make up these sequences with C, I, M and T omitted. The diaphorase was fluorescently labeled and each peptide sequence feature was scanned and fluorescence recorded on the array. Diaphorase bound tightly to some peptides and not at all to others. Two different concentrations of diaphorase were used, 1 and 10 micromolar, and the diaphorase was either bound in the presence of excess FAD or not. […] Indeed the Pearson correlation coefficient between w/ and w/o FAD was >0.97, which actually speaks to the reproducibility of this dataset. However, there are some differences as shown on the scatter plot of FIG. 1. When one takes a ratio of the binding without FAD and the binding with FAD, one finds the following top 30 ratios (Table 1): Note that all these sequences end with a GSG linker sequence. Because there are two concentrations, one can easily check for consistency. Note that 65535 is detector saturation, so one has to ignore those values. For this reason, the lower concentration is used most of the time. […] It appears that this was some kind of error and was ignored in subsequent analysis. A similar conclusion can be made with the 7th highest value. Looking at the sequences, RW or at least R or K followed by a nonpolar or aromatic amino acid at the N-terminus. This is interesting as FAD is negatively charged, though the adenine in FAD looks a bit like tryptophan (see FIG. 2).

| Sequence | Meas. ratio | 1 microM FAD (array fluorescence of bound diaphorase) | 1 micro no FAD (array fluorescence of bound diaphorase) | 10 microM FAD (array fluorescence of bound diaphorase) | 10 microM no FAD (array fluorescence of bound diaphorase) | 1 microM noFAD/FAD | 10 microM noFAD/FAD |
| --- | --- | --- | --- | --- | --- | --- | --- |
| YRYGWQKYGGSG [array peptide with C-terminal GSG linker] | 2.43 |  |  |  |  |  |  |
| QLLQLLFGGSG [array peptide with C-terminal GSG linker] | 0.51 | 6311.5 | 3228.25 | 53382.25 | 19529.5 | 0.5115 | 0.3658 |
| RQAYLFGGSG [array peptide with C-terminal GSG linker] | 3.23 | 4477 | 14479.75 | 64033.5 | 65535 | 3.234 | 1.023 |
| YRWGAKHYGGSG [array peptide with C-terminal GSG linker] | 2.06 |  |  |  |  |  |  |
| PVPWRHVNYAHSG | 0.69 |  |  |  |  |  |  |
| RYNLYKPSDGSG [array peptide with C-terminal GSG linker] | 2.87 | 1245.75 | 3569.5 | 18165 | 50327.75 | 2.865 | 2.771 |
| YRRPWKFRDGSG [array peptide with C-terminal GSG linker] | 1.74 |  |  |  |  |  |  |
| RYYPAFSGGSG [array peptide with C-terminal GSG linker] | 2.91 | 7535.25 | 21898 | 65535 | 65535 | 2.906 | 1 |
| RWKYQKFNGGSG [array peptide with C-terminal GSG linker] | 2.63 | 3860.75 | 10165 | 46173.5 | 61301.5 | 2.633 | 1.328 |
| KNRPYNKDLEDGSG [array peptide with C-terminal GSG linker] | 0.14 | 5147 | 733.25 | 2589.25 | 2522.5 | 0.1425 | 0.9742 |
| KEDKVFGFRFDGS | 0.70 |  |  |  |  |  |  |
| VLSLNQVYSEGSG [array peptide with C-terminal GSG linker] | 0.62 | 2705.5 | 1674.75 | 21822.25 | 9853.75 | 0.619 | 0.4515 |
| AFYGLELGGSG [array peptide with C-terminal GSG linker] | 0.54 | 4182.5 | 2264.25 | 36729 | 16544 | 0.5414 | 0.4504 |
| WRSVYVPNGGSG [array peptide with C-terminal GSG linker] | 2.35 |  |  |  |  |  |  |
| YSALFGLQEDGSG [array peptide with C-terminal GSG linker] | 0.58 | 2100.75 | 1225.5 | 16872.25 | 8529 | 0.5834 | 0.5055 |
| DLDKAFGGSG [array peptide with C-terminal GSG linker] | 0.30 | 2049.75 | 607.25 | 2142.25 | 1853 | 0.2963 | 0.865 |
| EDEGLSKFEGGSG [array peptide with C-terminal GSG linker] | 0.13 | 4165.5 | 560.55 | 1378.5 | 1220.25 | 0.1346 | 0.8852 |
| RAQYAQYLFGGSG [array peptide with C-terminal GSG linker] | 2.76 | 3162 | 8721.5 | 55433.5 | 65535 | 2.758 | 1.182 |

| Sequence | Meas. ratio | 1 microM FAD (array fluorescence of bound diaphorase) | 1 micro no FAD (array fluorescence of bound diaphorase) | 10 microM FAD (array fluorescence of bound diaphorase) | 10 microM no FAD (array fluorescence of bound diaphorase) | 1 microM noFAD/FAD | 10 microM noFAD/FAD |
| --- | --- | --- | --- | --- | --- | --- | --- |
| KHSFQKELGGSG [array peptide with C-terminal GSG linker] | 2.87 | 727.5 | 2086 | 300.5 | 2387.25 | 2.867 | 0.7943 |
| KEAPGPRFGGSG [array peptide with C-terminal GSG linker] | 0.13 | 8281.5 | 1071.25 | 5467.5 | 5614.5 | 0.1294 | 1.027 |
| SGVLQFFGGSG [array peptide with C-terminal GSG linker] | 0.70 |  |  |  |  |  |  |
| PRYSGQYGGSG [array peptide with C-terminal GSG linker] | 2.61 | 3234.25 | 8432.75 | 45157.75 | 65535 | 2.607 | 1.451 |
| RWSFPAKGGSG [array peptide with C-terminal GSG linker] | 2.77 | 3614 | 10002.75 | 51221.25 | 65535 | 2.768 | 1.279 |
| FYNFGYQDLEDGS | 0.75 |  |  |  |  |  |  |
| WRPFWKNLGGSG [array peptide with C-terminal GSG linker] | 2.18 |  |  |  |  |  |  |
| YRGAGKNKGGSG [array peptide with C-terminal GSG linker] | 1.49 |  |  |  |  |  |  |
| YRLNLKHPVGGSG [array peptide with C-terminal GSG linker] | 3.05 | 4146.5 | 12652.75 | 56689 | 65535 | 3.051 | 1.156 |
| DANLFGYFKDGGS | 0.70 |  |  |  |  |  |  |
| YWRFYANWAQLFG | 2.56 |  |  |  |  |  |  |
| DYFEGQLNHLGGS | 0.75 |  |  |  |  |  |  |
| RPLQVQRGGSG [array peptide with C-terminal GSG linker] | 0.37 | 14421.5 | 5406 | 41059.5 | 53243 | 0.3749 | 1.297 |
| YRFPNAQSPGGSG [array peptide with C-terminal GSG linker] | 2.63 | 2373 | 6240 | 37721.5 | 65535 | 2.63 | 1.737 |
| VSWVFGLGHEGGS | 0.71 |  |  |  |  |  |  |
| YSVDYWYQVDGSG [array peptide with C-terminal GSG linker] | 0.17 | 10415 | 1802.5 | 19218.25 | 19784.75 | 0.1731 | 1.029 |
| RVLPYHGWKWFSG | 2.45 |  |  |  |  |  |  |
| AWVELEYQYVFEG | 0.74 |  |  |  |  |  |  |
